Source: article PMC9757636, “The effectiveness of newly synthesized quaternary ammonium salts differing in chain length and type of counterion against priority human pathogens” (Scientific Reports, 2022)

How the values were obtained:
[1] = test system: Salmonella typhimurium TA100; assay: Mutagenicity (Ames test); assay type: cell-based; settings: for Number of colonies: ± SD
Description: (§1) Two reference strains of Salmonella Typhimurium TA98 and Salmonella Typhimurium TA100, deficient in histidine synthesis, were used for this study according to the method proposed by Ames et al. with modifications. […] The mixture was mixed and poured onto a Davis minimal medium plate. The mixture without the test compound was used as a negative control. The positive control was a mixture of bacterial culture, biotin-histidine solution, and sodium azide (at a concentration of 15 μg/mL for strain TA100) or acriflavine (at a concentration of 100 μg/mL for strain TA98). Plates were incubated for 48 h at 37 °C, and then colonies were counted. The mutagenicity ratio (MR), the ratio of the number of revertants grown in the presence of the test compound to the number of spontaneously occurring revertants (negative control), was calculated. A mutagenic ratio equal to or greater than 1.7 indicates the mutagenic potential of the tested compounds. The study was performed in three times.

[2] = test system: Salmonella typhimurium TA98; assay: Mutagenicity (Ames test); assay type: cell-based; settings: for Number of colonies: ± SD
Description: as §1

[3] = Critical micelle concentration by conductometric measurements; assay type: physicochemical; settings: aqueous solution, 25 °C
Description: Values of critical micelle concentrations (CMC) of cationic surfactants were measured conductrometrically. N5721 conductometer (Tel-Eko Projekt sp z o.o., Poland), equipped with N5981 probe, was calibrated using 0.1 M, 0.01 M and 0.001 M KCl aqueous solutions (conductivities equal to 1.287 S/m, 0.141 S/m and 0.0147 S/m, respectively) and used without temperature compensation mode (constant temperature 25 °C was kept during all calibration procedures and measurements). Values of specific conductivities of at least 15 different concentrations for each surfactant were measured and plotted versus concentration; the discontinuity point was used to determine critical micelle concentration.

[4] = test system: S. epidermidis ATCC 35984; assay: Adhesion to stainless steel; assay type: cell-based, Staphylococcus epidermidis; settings: 1280 µM
[5] = test system: P. aeruginosa ATCC 27853; assay: MIC/MBC microdilution; assay type: cell-based, Pseudomonas aeruginosa; settings: Pseudomonas aeruginosa; for MIC: ATCC27853, 24 h, P. aeruginosa ATCC 27853, 24 h, 37 °C, >90% growth inhibition, read-out: Minimal inhibitory concentration (MIC); for MBC: ATCC27853, P. aeruginosa ATCC 27853, 99.9% reduction, read-out: Minimal bactericidal concentration (*MBC)
Description: (§2) The minimum inhibitory concentration (MIC) of the tested monomeric QAS was performed using the microdilution method according to CLSI recommendation (M27-A3). Concentrations from 10 to 1280 µM were analyzed. Strains were incubated with or without compounds (growth control) for 24 h at 37 °C. Three independent replicates were performed. The MIC value was determined spectrophotometrically and the concentration that inhibited more than 90% of growth was determined. Optical density was measured at λ = 590 nm using a 96-well microplate reader (Bio-Rad Universal Hood II).
(§3) To determine the minimum bactericidal concentration (MBC), 10 µL of bacterial suspension incubated with monomeric QAS (MIC concentration and two times higher) was transferred to plates with LB (1% tryptone, 1% yeast extract, 0.5% NaCl) medium. […] The concentration that reduced 99.9% of microbial growth was determined as MBC[54].

[6] = test system: P. aeruginosa PAO1; assay: MIC/MBC microdilution; assay type: cell-based, Pseudomonas aeruginosa; settings: Pseudomonas aeruginosa; for MBC: 99.9% reduction, read-out: Minimal bactericidal concentration (*MBC); for MIC: 24 h, 37 °C, >90% growth inhibition, read-out: Minimal inhibitory concentration (MIC)
Description: as §2, §3

[7] = test system: S. epidermidis ATCC 35984 biofilm; assay: Biofilm eradication; assay type: cell-based, Staphylococcus epidermidis; settings: 10 µM, 4 h
Description: (§4) Biofilm eradication assay was performed according to the method of Christensen et al. with modifications. A standardized bacterial (OD = 0.6) suspension of 100 µL was spotted into a 96-well polystyrene plate. They were incubated for 24 h at 37 °C. Cultures were removed, the plate was washed and then concentrations of QAS ([…]) were added, incubated for 4 h at 37 °C with 100 rpm shaking. The wells were washed with miliQ and fixed at 60 °C for 20 min. The wells were […] with 0.1% crystal violet solution for 5 min. The wells were washed with miliQ until the unfixed dye was completely eluted. The absorbance at λ = 590 nm was measured using a reader (Bio-Rad Universal Hood II). The positive control was an untreated biofilm. Three independent test trials were performed.

[8] = test system: S. aureus ATCC 6538; assay: MIC/MBC microdilution; assay type: cell-based, Staphylococcus aureus; settings: Staphylococcus aureus; for MIC: ATCC6538, 24 h, S. aureus ATCC 6538, 24 h, 37 °C, >90% growth inhibition, read-out: Minimal inhibitory concentration (MIC); for MBC: ATCC6538, S. aureus ATCC 6538, 99.9% reduction, read-out: Minimal bactericidal concentration (*MBC)
Description: as §2, §3

[9] = test system: S. aureus MRSA R98; assay: MIC/MBC microdilution; assay type: cell-based, Staphylococcus aureus; settings: Staphylococcus aureus, MRSA; for MBC: 99.9% reduction, read-out: Minimal bactericidal concentration (*MBC); for MIC: 24 h, 37 °C, >90% growth inhibition, read-out: Minimal inhibitory concentration (MIC)
Description: as §2, §3

[10] = test system: P. aeruginosa PAO1; assay: Adhesion to stainless steel; assay type: cell-based, Pseudomonas aeruginosa; settings: P. aeruginosa PAO1; 1280 µM
[11] = test system: E. coli ATCC 11229; assay: MIC/MBC microdilution; assay type: cell-based, Escherichia coli
Description: as §2, §3

[12] = test system: E. coli H64; assay: MIC/MBC microdilution; assay type: cell-based, Escherichia coli; settings: Escherichia coli; for MIC: H64, 24 h, E. coli H64, 24 h, 37 °C, >90% growth inhibition, read-out: Minimal inhibitory concentration (MIC); for MBC: H64, E. coli H64, 99.9% reduction, read-out: Minimal bactericidal concentration (*MBC)
Description: as §2, §3

[13] = test system: S. epidermidis ATCC 35984; assay: MIC/MBC microdilution; assay type: cell-based, Staphylococcus epidermidis; settings: Staphylococcus epidermidis; for MBC: ATCC35984, 99.9% reduction, read-out: Minimal bactericidal concentration (*MBC); for MIC: ATCC35984, 24 h, 37 °C, >90% growth inhibition, read-out: Minimal inhibitory concentration (MIC)
Description: as §2, §3

[14] = test system: S. epidermidis B374; assay: MIC/MBC microdilution; assay type: cell-based, Staphylococcus epidermidis
Description: as §2, §3

[15] = test system: S. epidermidis SI8; assay: MIC/MBC microdilution; assay type: cell-based, Staphylococcus epidermidis; settings: Staphylococcus epidermidis; for MBC: 99.9% reduction, read-out: Minimal bactericidal concentration (*MBC); for MIC: 24 h, 37 °C, >90% growth inhibition, read-out: Minimal inhibitory concentration (MIC)
Description: as §2, §3

[16] = test system: S. epidermidis B374 biofilm; assay: Biofilm eradication; assay type: cell-based, Staphylococcus epidermidis; settings: 160 µM, 4 h
Description: as §4

Row | SMILES | Mutagenicity index ([1]; ¼ MIC) | Number of colonies ([1]; ¼ MIC) | Mutagenicity index ([1]; ½ MIC) | Number of colonies ([1]; ½ MIC) | Mutagenicity index ([2]; ¼ MIC) | Number of colonies ([2]; ¼ MIC) | Mutagenicity index ([2]; ½ MIC) | Number of colonies ([2]; ½ MIC) | CMC [3] | adhesion to stainless steel (remaining) [4] | MIC [5] | MBC [5] | MBC [6] | MIC [6] | MIC [8] | MBC [8] | MBC [9] | MIC [9] | MIC [12] | MBC [12] | also measured
1 | CC(=O)[O-].CCCCCCCCCCCC(=O)N(C)CCC[N+](C)(C)C [AcC12] | 0.94 | 264.7 ± 15 | 1.08 | 304 ± 11.3 | 0.96 | 22 ± 5.3 | 0.91 | 20.8 ± 4.4 | 0.018 mol/L | 13 to 30% | > 1280 µM | > 1280 µM | > 1280 µM | > 1280 µM | 1280 µM | 1280 µM | 640 µM | 640 µM | 1280 µM | 1280 µM | biofilm destruction [7]: approximately 40%; adhesion to stainless steel (remaining) [10]: 13 to 30%; MIC ([11]; Escherichia coli, ATCC11229, 24 h, E. coli ATCC 11229, 24 h, 37 °C, >90% growth inhibition, read-out: Minimal inhibitory concentration (MIC)): 1280 µM; MBC ([11]; Escherichia coli, ATCC11229, E. coli ATCC 11229, 99.9% reduction, read-out: Minimal bactericidal concentration (*MBC)): 1280 µM; MBC [13]: 640 µM; MIC [13]: 640 µM; MIC ([14]; Staphylococcus epidermidis, B374, 24 h, S. epidermidis B374, 24 h, 37 °C, >90% growth inhibition, read-out: Minimal inhibitory concentration (MIC)): 320 µM; MBC ([14]; Staphylococcus epidermidis, B374, S. epidermidis B374, 99.9% reduction, read-out: Minimal bactericidal concentration (*MBC)): 320 µM; MBC [15]: 640 µM; MIC [15]: 640 µM
2 | CC(=O)[O-].CCCCCCCCCCCCCC(=O)N(C)CCC[N+](C)(C)C [AcC14, [(3-tetradecyilomethylo-amine)propyl] trimethylammonium acetate] | 0.97 | 194 ± 1 | 0.95 | 189 ± 1.4 | 0.96 | 24.5 ± 3.5 | 1.01 | 25.7 ± 4 | 0.0054 mol/L | 15% | 1280 µM | > 1280 µM | > 1280 µM | > 1280 µM | 160 µM | 160 µM | 160 µM | 160 µM | 160 µM | 160 µM | biofilm eradication [16]: 70–80%; Minimal bactericidal concentration (*MBC) ([11]; E. coli ATCC 11229, 99.9% reduction): 320 *320 µM; Minimal inhibitory concentration (MIC) ([11]; E. coli ATCC 11229, 24 h, 37 °C, >90% growth inhibition): 320 *320 µM; MBC [13]: 160 µM; MIC [13]: 160 µM; Minimal bactericidal concentration (*MBC) ([14]; S. epidermidis B374, 99.9% reduction): 40 *40 µM; Minimal inhibitory concentration (MIC) ([14]; S. epidermidis B374, 24 h, 37 °C, >90% growth inhibition): 40 *40 µM; MBC [15]: 160 µM; MIC [15]: 160 µM
